The target of one test is Protein argonaute-2 (Homo sapiens, UniProt Q9UKV8). The test is described as follows: Inhibition of AGO2 (unknown origin).
Test [1] can be described thus: Inhibition of miR-27a (unknown origin) maturation at 5 uM relative to control.
The nature of test [2]: Binding affinity to pre-miR-21 (unknown origin) assessed as dissociation constant by microarray assay.
Test [3] can be described thus: Inhibition of miR-122 (unknown origin) assessed as relative light unit by luciferase assay.
The nature of test [4]: Binding affinity to pre-miR-21 (unknown origin) at A bulge assessed as dissociation constant by dicer assay.
Test [5] in a line: Binding affinity to miR-96 (unknown origin) assessed as dissociation constant. The arrangement: species or system Homo sapiens.
A short description of test [6]: Inhibition of pre-miR-373 (unknown origin) by FRET assay.
Test [7] in a line: Inhibition of pre-miR-373 (unknown origin) at 250 uM by FRET assay relative to control.
Test [8] is described as follows: Inhibition of pre-miR-372 (unknown origin) by FRET assay.
A further test has as its target T1, Protein lin-28 homolog A (Homo sapiens, UniProt Q9H9Z2).
T1 sequence (Q9H9Z2 whole entry): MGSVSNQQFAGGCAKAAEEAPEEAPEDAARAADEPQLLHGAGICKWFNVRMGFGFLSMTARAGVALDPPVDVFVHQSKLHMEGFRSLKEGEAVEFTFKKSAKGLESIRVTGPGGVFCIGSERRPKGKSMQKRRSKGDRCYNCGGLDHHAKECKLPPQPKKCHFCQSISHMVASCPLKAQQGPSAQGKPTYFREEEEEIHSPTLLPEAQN
Kind of test: Inhibition of LIN28A (unknown origin) by FRET assay.

For the next test, the system named is BCL1. The test is described as follows: Inhibition of cell growth in mouse BCL1 cells. It is filed as functional, cell-based.
Test [9] in a line: Inhibition of pre-miR-21 (unknown origin) by FP assay.
The nature of test [10]: Activation of miR-122 (unknown origin) assessed as relative light unit by luciferase assay. Particulars: filed as activator.
A short description of test [11]: Binding affinity to pre-miR-21 (unknown origin) assessed as dissociation constant by fluorescence-based assay.
The nature of test [12]: Binding affinity to pre-miR-21 (unknown origin) assessed as melting temperature by differential scanning fluorimetry analysis.

Structures are written as SMILES. “And” between values parts separate entries of the source, which are not always exact repeats. Identical values can stand only once. Counter-ions that a name gives are not always drawn.

Sequence of Protein argonaute-2 (Q9UKV8 whole entry): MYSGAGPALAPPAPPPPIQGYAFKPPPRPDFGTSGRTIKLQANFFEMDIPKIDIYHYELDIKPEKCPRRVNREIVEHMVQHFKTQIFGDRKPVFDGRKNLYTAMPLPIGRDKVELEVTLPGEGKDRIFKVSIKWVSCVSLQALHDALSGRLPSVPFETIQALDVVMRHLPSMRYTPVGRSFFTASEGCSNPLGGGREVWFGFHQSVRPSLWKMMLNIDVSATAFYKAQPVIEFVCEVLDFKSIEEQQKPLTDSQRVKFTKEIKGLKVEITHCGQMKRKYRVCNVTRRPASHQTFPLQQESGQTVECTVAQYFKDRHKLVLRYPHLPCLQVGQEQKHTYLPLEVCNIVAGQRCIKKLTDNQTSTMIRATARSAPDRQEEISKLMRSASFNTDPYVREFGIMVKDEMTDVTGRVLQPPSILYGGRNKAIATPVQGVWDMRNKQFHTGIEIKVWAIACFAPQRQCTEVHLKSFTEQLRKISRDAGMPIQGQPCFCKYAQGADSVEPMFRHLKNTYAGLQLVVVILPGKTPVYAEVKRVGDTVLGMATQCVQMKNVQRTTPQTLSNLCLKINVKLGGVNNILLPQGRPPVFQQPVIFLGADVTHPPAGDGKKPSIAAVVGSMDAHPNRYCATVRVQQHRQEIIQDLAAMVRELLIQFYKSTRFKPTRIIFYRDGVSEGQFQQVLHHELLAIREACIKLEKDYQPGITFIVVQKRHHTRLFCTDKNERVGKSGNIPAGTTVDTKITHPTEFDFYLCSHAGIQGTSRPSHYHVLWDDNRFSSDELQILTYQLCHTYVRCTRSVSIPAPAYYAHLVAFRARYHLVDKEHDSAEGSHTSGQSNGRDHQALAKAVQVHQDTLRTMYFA

Consider `N=C(N)NCc1ccc(Oc2ccccc2)cc1`, for which the IC50 (usually the concentration that gives 50% inhibition) against Protein argonaute-2 is over 1000 µM.

For `NC[C@H]1O[C@H](O[C@H]2[C@H](O)[C@@H](O[C@H]3O[C@H](CO)[C@@H](O)[C@H](N)[C@H]3O)[C@H](N)C[C@@H]2N)[C@H](O)[C@@H](O)[C@@H]1O`, the inhibition (in general, the change of the read-out against control, counted positive when it falls) in test [1] turned out to be 25%.

In the case of `CCCOc1ccc(NCC(O)Cn2c3ccc(Br)cc3c3cc(Br)ccc32)cc1` (stereo unspecified), the Kd (commonly the equilibrium constant for the complex coming apart) in [2] stood at 2.2 µM.

On to `CCCCCCNS(=O)(=O)c1ccc2c(c1)CCCN2`, for which the Activity in test [3] worked out at 11.9 RLU.

Regarding `COc1cccc2c1C(=O)c1c(O)c3c(c(O)c1C2=O)C[C@@](O)(C(=O)CO)C[C@@H]3O[C@H]1C[C@H](N)[C@@H](O)[C@H](C)O1` [EPIRUBICIN], in [4], the Kd was determined as 0.024 µM.

`CCCN(CC(=O)N(CCC)CC(=O)N(CC(=O)NCCCNCCCNC(=O)c1csc(-c2csc(CCNC(=O)[C@@H](NC(=O)[C@@H](C)[C@H](O)[C@@H](C)NC(=O)[C@@H](NC(=O)c3nc([C@H](CC(N)=O)NC[C@H](N)C(N)=O)nc(N)c3C)[C@@H](O[C@@H]3O[C@@H](CO)[C@@H](O)[C@H](O)[C@@H]3O[C@H]3O[C@H](CO)[C@@H](O)[C@H](OC(N)=O)[C@@H]3O)c3c[nH]cn3)[C@@H](C)O)n2)n1)Cc1cn(CCCNC(=O)CCCOc2c(C(C)(C)C)cc(-c3nc4ccc(N5CCN(C)CC5)cc4[nH]3)cc2C(C)(C)C)nn1)C(=O)CCCOc1cccc(-c2nc3ccc(-c4nc5ccc(N6CCN(C)CC6)cc5[nH]4)cc3[nH]2)c1`: the Kd in test [5] was found to be 0.064 µM.

As to `NC[C@@H]1O[C@H](O[C@H]2[C@@H](O)[C@H](O[C@@H]3[C@@H](O)[C@H](N)C[C@H](N)[C@H]3O[C@H]3O[C@H](CN)[C@@H](O)[C@H](O)[C@H]3N)O[C@@H]2n2cc(CCC(=O)NCC(=O)Nc3nc4ccccc4[nH]3)nn2)[C@H](N)[C@@H](O)[C@@H]1O`, the values for the concentration for half-maximal inhibition (IC50) in test [6] and in test [8] were 8.57 µM and 10.3 µM, respectively. For the same compound, the inhibition in [7] worked out at 20%.

Take `O=S(=O)(Nc1ccccc1)c1ccc2c(c1)CCCN2`: the Activity in test [3] was found to be 9.9 RLU.

Compound `NCCc1cc(O)c(O)cc1O` [OXIDOPAMINE HYDROCHLORIDE] showed an IC50 at Protein argonaute-2 of 1.61 µM.

Compound `CC1(C)Oc2cc(N3CCN(C(=O)OCc4ccccc4)CC3)c([N+](=O)[O-])cc2-c2c1cnn2-c1ccc(C(=O)O)cc1` returned an IC50 at Protein lin-28 homolog A of 4.03 µM.

Take `O=[N+]([O-])c1ccc2nc(-c3ccccc3[N+](=O)[O-])nc(-c3ccccc3)c2c1`: in the test with BCL1, the EC50 (in general, the concentration that produces a half-maximal response) amounted to 20 µM. This counts as double-digit micromolar.

For `CCCCNC(=O)Nc1ccc2oc(CCc3cn([C@H]4O[C@@H](O[C@@H]5[C@@H](O)[C@H](N)C[C@H](N)[C@H]5O[C@H]5O[C@H](CN)[C@@H](O)[C@H](O)[C@H]5N)[C@H](O)[C@@H]4O[C@H]4O[C@@H](CN)[C@@H](O)[C@H](O)[C@H]4N)nn3)nc2c1`, the IC50 is 20.8 µM in [6] and 16.3 µM in [8]. The compound further yielded an inhibition in test [7] of 20%.

As for `O=[N+]([O-])c1ccc2nc(-c3ccccc3)nc(-c3ccccc3)c2c1`, the EC50 with BCL1 is 20 µM. That is a double-digit micromolar value.

For the compound `NC(Cc1cc(O)c(O)cc1O)C(=O)O` (stereo unspecified), in test [9], the IC50 stood at 7.05 µM.

Regarding `O=[N+]([O-])c1ccc2nc(-c3ccccc3O)nc(-c3ccccc3)c2c1`, the EC50 with BCL1 was 20 µM. This lies in the double-digit micromolar range.

As for `Cc1ccc(C(=O)Nc2ccc(S(=O)(=O)O)c3cc(S(=O)(=O)O)cc(S(=O)(=O)O)c23)cc1NC(=O)c1cccc(NC(=O)Nc2cccc(C(=O)Nc3cc(C(=O)Nc4ccc(S(=O)(=O)O)c5cc(S(=O)(=O)O)cc(S(=O)(=O)O)c45)ccc3C)c2)c1` [SURAMIN], the IC50 at Protein argonaute-2 is 0.69 µM. That is a sub-micromolar value.

`CCCN(CC(=O)N(CCC)CC(=O)N(CC(N)=O)Cc1cn(CCCNC(=O)CCCOc2c(C(C)(C)C)cc(-c3nc4cc(N5CCN(C)CC5)ccc4[nH]3)cc2C(C)(C)C)nn1)C(=O)CCCOc1cccc(-c2nc3ccc(-c4nc5ccc(N6CCN(C)CC6)cc5[nH]4)cc3[nH]2)c1`: in test [5], the Kd was found to be 0.2 µM.

Regarding `CCOc1ccc(NCC(O)Cn2c3ccc(Br)cc3c3cc(Br)ccc32)cc1` (stereo unspecified), the Kd in test [2] was 1.2 µM.

For `NC[C@@H]1O[C@H](O[C@H]2[C@@H](O)[C@H](O[C@@H]3[C@@H](O)[C@H](N)C[C@H](N)[C@H]3O[C@H]3O[C@H](CN)[C@@H](O)[C@H](O)[C@H]3N)O[C@@H]2CO)[C@H](N)[C@@H](O)[C@@H]1O` [FRAMYCETIN], the figures for the IC50 in [6] and in test [8] were 178 µM and 125 µM, respectively. The figures for the inhibition in test [7] and in test [1] were 100% and 25%, respectively.

As for `CN(C)CCN1C(=O)c2cccc3cccc(c23)C1=O`, the Activity in [10] is 0.18 RLU.

As to `COc1ccccc1CCNC1CC(=O)C(c2ccc(C)cc2)C1=O` (stereo unspecified), in test [11], the Kd amounted to 38 µM.

In [9], `O=C(O)c1ccc2nc3c4c(O)ccc(O)c4c(=O)c(Cl)c-3oc2c1` gave an IC50 of 4.71 µM.

As for `OC(CNc1cccc(Cl)c1)Cn1c2ccc(Br)cc2c2cc(Br)ccc21` (stereo unspecified), in test [2], the dissociation constant Kd is 1.2 µM and 0.8 µM.

With `NC[C@@H]1O[C@H](O[C@H]2[C@@H](O)[C@H](O[C@@H]3[C@@H](O)[C@H](N)C[C@H](N)[C@H]3O[C@H]3O[C@H](CN)[C@@H](O)[C@H](O)[C@H]3N)O[C@@H]2n2cc(Cn3cnc(-c4cccc(NC(=O)c5ccccc5)c4)c3)nn2)[C@H](N)[C@@H](O)[C@@H]1O`, the IC50 came to 8.96 µM in [6] and 8.3 µM in [8]. In [7], this compound came in with an inhibition of 20%.

The compound `CC(=O)N(C)c1cccc(-c2ccc3nnc(C)n3n2)c1` came in with an IC50 against Protein lin-28 homolog A of 8 µM.

In turn, `NC[C@H]1O[C@H](O[C@H]2[C@H](O)[C@@H](O[C@H]3O[C@H](CO)[C@@H](O)[C@H](N)[C@H]3O)[C@H](N)C[C@@H]2N)[C@H](N)C[C@@H]1O` yielded an inhibition in test [1] of 10%.

In test [1], `CN[C@@H]1[C@H](O[C@H]2[C@H](O[C@H]3[C@H](O)[C@@H](O)[C@H](N=C(N)N)[C@@H](O)[C@@H]3N=C(N)N)O[C@@H](C)[C@]2(O)C=O)O[C@@H](CO)[C@H](O)[C@H]1O` had an inhibition of 25%.

As to `O=c1cc(N2CCC(N3CCCC3)CC2)c2ccccc2o1`, the Kd in [11] was 23 µM.

Take `COc1cccc2c1C(=O)c1c(O)c3c(c(O)c1C2=O)C[C@@](O)(C(=O)CO)C[C@@H]3O[C@H]1C[C@H](N)[C@H](O)[C@H](C)O1` [DOXORUBICIN]: the Kd in [4] came to 0.058 µM.

In the case of `COc1ccc(NCC(O)Cn2c3ccc(Br)cc3c3cc(Br)ccc32)cc1` (stereo unspecified), the Kd in test [2] was 0.7 µM and 0.8 µM. The Tm in test [12] was -2.3 °C.

Regarding `CCCCNC(=O)Nc1cccc(-c2cn(Cc3cn([C@H]4O[C@@H](O[C@@H]5[C@@H](O)[C@H](N)C[C@H](N)[C@H]5O[C@H]5O[C@H](CN)[C@@H](O)[C@H](O)[C@H]5N)[C@H](O)[C@@H]4O[C@H]4O[C@@H](CN)[C@@H](O)[C@H](O)[C@H]4N)nn3)cn2)c1`, the IC50 in test [6] was 17.3 µM; in test [8] it was 25.6 µM. This compound gave an inhibition in test [7] of 20%.

As to `Cc1ccccc1NCC(O)Cn1c2ccc(Br)cc2c2cc(Br)ccc21` (stereo unspecified), the dissociation constant (Kd) in test [2] was 2.3 µM. Further, the Tm in [12] is -5.1 °C.

Consider `CC(=O)c1ccc(C(=O)Nc2ccc3ccccc3c2)cc1`, for which, in test [3], the Activity was 6.7 RLU.

The compound `c1ccc(CN(CCN(Cc2ccccn2)Cc2ccccn2)Cc2ccccn2)nc1` returned an IC50 at Protein lin-28 homolog A of 2.5 µM.

On to `C/C(=N\NC(=O)c1ccccn1)c1c(C)[nH]n(-c2ccccc2)c1=O`, for which, in test [11], the Kd came out at 109 µM.

On to `OC(CNc1ccc(N2CCOCC2)cc1)Cn1c2ccc(Br)cc2c2cc(Br)ccc21` (stereo unspecified), for which the equilibrium dissociation constant (Kd) in test [2] is 2.1 µM.

For the compound `O=C(Nc1ccc2ccccc2c1)c1ccc([N+](=O)[O-])cc1`, in [3], the Activity was determined as 6.2 RLU.

On Protein lin-28 homolog A, `CCOc1cccc2c1N[C@@H](c1ccc(C(=O)O)cc1)[C@H]1CC=C[C@@H]21` registered an IC50 of 7 µM.

For the origin of these results see ChEMBL document CHEMBL5233220, “A review of currently identified small molecule modulators of microRNA function” (Eur J Med Chem, 2020).
